Legend:
K562 [1] = test: Survival of human K562 cells at 0.1 uM under deem light after 96 hrs by MTT assay relative to control; format: functional; conditions: K562, 96 h, read-out: Survival
[2] = Survival of human MDA-MB cells at 10 uM under deem light after 96 hrs by MTT assay relative to control; format: functional; conditions: read-out: Survival
[3] = Survival of human MDA-MB cells at 1 uM under deem light after 96 hrs by MTT assay relative to control; format: functional; conditions: read-out: Survival
[4] = Survival of human H209 cells at 0.1 uM under deem light after 96 hrs by MTT assay relative to control; format: functional; conditions: NCI-H209, 96 h, read-out: Survival
NCI-H69 [5] = test: Survival of human H69 cells at 1 uM under deem light after 96 hrs by MTT assay relative to control; format: functional; conditions: NCI-H69, 96 h, read-out: Survival
[6] = Survival of human 2780.9S cells at 100 uM under deem light after 96 hrs by MTT assay relative to control; format: functional; conditions: read-out: Survival
[7] = Photohemolysis in human RBC in absence of light; format: ADME, cell-based; conditions: erythrocyte
[8] = Cytotoxicity against human MDA-MB cells under deem light after 96 hrs by MTT assay; format: functional, cell-based
K562 [9] = test: Survival of human K562 cells at 50 uM under deem light after 96 hrs by MTT assay relative to control; format: functional; conditions: K562, 96 h, read-out: Survival
[10] = Survival of human 2780.9S cells at 0.1 uM under deem light after 96 hrs by MTT assay relative to control; format: functional; conditions: read-out: Survival
Raji [11] = test: Cytotoxicity against human Raji cells under deem light after 96 hrs by MTT assay; format: functional, cell-based
[12] = Photohemolysis in human RBC assessed as concentration required to 50% hemolysis under light exposure for 10 mins; format: ADME, cell-based, Erythrocyte; conditions: human red blood cells, read-out: Activity
HeLa [13] = test: Survival of human HeLa cells at 0.1 uM under deem light after 96 hrs by MTT assay relative to control; format: functional; conditions: read-out: Survival
K562 [14] = test: Cytotoxicity against human K562 cells under deem light after 96 hrs by MTT assay; format: functional, cell-based; conditions: K562, 96 h
[15] = Photohemolysis in human RBC at 520 nM under exposure to light for 10 mins; format: ADME, cell-based, Erythrocyte; conditions: human red blood cells, read-out: Activity
HeLa [16] = test: Survival of human HeLa cells at 10 uM under deem light after 96 hrs by MTT assay relative to control; format: functional; conditions: read-out: Survival
NCI-H69 [17] = test: Survival of human H69 cells at 10 uM under deem light after 96 hrs by MTT assay relative to control; format: functional; conditions: NCI-H69, 96 h, read-out: Survival
Daudi = test: Cytotoxicity against human Daudi cells under deem light after 96 hrs by MTT assay; format: functional, cell-based
K562 [18] = test: Survival of human K562 cells at 10 uM under deem light after 96 hrs by MTT assay relative to control; format: functional; conditions: K562, 96 h, read-out: Survival
[19] = Survival of human H209 cells at 100 uM under deem light after 96 hrs by MTT assay relative to control; format: functional; conditions: NCI-H209, 96 h, read-out: Survival
NCI-H69 [20] = test: Survival of human H69 cells at 50 uM under deem light after 96 hrs by MTT assay relative to control; format: functional; conditions: NCI-H69, 96 h, read-out: Survival
Raji [21] = test: Survival of human Raji cells at 1 uM under deem light after 96 hrs by MTT assay relative to control; format: functional; conditions: read-out: Survival
NCI-H69 [22] = test: Survival of human H69 cells at 100 uM under deem light after 96 hrs by MTT assay relative to control; format: functional; conditions: NCI-H69, 96 h, read-out: Survival
SiHa [23] = test: Survival of human SIHA cells at 1 uM under deem light after 96 hrs by MTT assay relative to control; format: functional; conditions: read-out: Survival
HeLa [24] = test: Survival of human HeLa cells at 50 uM under deem light after 96 hrs by MTT assay relative to control; format: functional; conditions: read-out: Survival
K562 [25] = test: Survival of human K562 cells at 100 uM under deem light after 96 hrs by MTT assay relative to control; format: functional; conditions: K562, 96 h, read-out: Survival
Raji [26] = test: Survival of human Raji cells at 100 uM under deem light after 96 hrs by MTT assay relative to control; format: functional; conditions: read-out: Survival
Raji [27] = test: Survival of human Raji cells at 10 uM under deem light after 96 hrs by MTT assay relative to control; format: functional; conditions: read-out: Survival
[28] = Photohemolysis in human RBC assessed as concentration required to 50% hemolysis under light exposure for 5 mins; format: ADME, cell-based, Erythrocyte; conditions: human red blood cells, read-out: Activity
K562 [29] = test: Survival of human K562 cells at 1 uM under deem light after 96 hrs by MTT assay relative to control; format: functional; conditions: K562, 96 h, read-out: Survival
[30] = Survival of human MDA-MB cells at 50 uM under deem light after 96 hrs by MTT assay relative to control; format: functional; conditions: read-out: Survival
Raji [31] = test: Survival of human Raji cells at 0.1 uM under deem light after 96 hrs by MTT assay relative to control; format: functional; conditions: read-out: Survival
SiHa [32] = test: Survival of human SIHA cells at 50 uM under deem light after 96 hrs by MTT assay relative to control; format: functional; conditions: read-out: Survival
[33] = Survival of human H209 cells at 1 uM under deem light after 96 hrs by MTT assay relative to control; format: functional; conditions: NCI-H209, 96 h, read-out: Survival
SiHa [34] = test: Cytotoxicity against human SIHA cells under deem light after 96 hrs by MTT assay; format: functional, cell-based
Raji [35] = test: Survival of human Raji cells at 50 uM under deem light after 96 hrs by MTT assay relative to control; format: functional; conditions: read-out: Survival
[36] = Survival of human H209 cells at 50 uM under deem light after 96 hrs by MTT assay relative to control; format: functional; conditions: NCI-H209, 96 h, read-out: Survival
HeLa [37] = test: Cytotoxicity against human HeLa cells under deem light after 96 hrs by MTT assay; format: functional, cell-based
[38] = Survival of human MDA-MB cells at 100 uM under deem light after 96 hrs by MTT assay relative to control; format: functional; conditions: read-out: Survival
[39] = Survival of human 2780.9S cells at 50 uM under deem light after 96 hrs by MTT assay relative to control; format: functional; conditions: read-out: Survival
NCI-H69 [40] = test: Cytotoxicity against human H69 cells under deem light after 96 hrs by MTT assay; format: functional, cell-based; conditions: NCI-H69, 96 h
[41] = Survival of human 2780.9S cells at 1 uM under deem light after 96 hrs by MTT assay relative to control; format: functional; conditions: read-out: Survival
[42] = Cytotoxicity against human 2780.9S cells under deem light after 96 hrs by MTT assay; format: functional, cell-based
SiHa [43] = test: Survival of human SIHA cells at 100 uM under deem light after 96 hrs by MTT assay relative to control; format: functional; conditions: read-out: Survival
[44] = Survival of human 2780.9S cells at 10 uM under deem light after 96 hrs by MTT assay relative to control; format: functional; conditions: read-out: Survival
[45] = Survival of human MDA-MB cells at 0.1 uM under deem light after 96 hrs by MTT assay relative to control; format: functional; conditions: read-out: Survival
[46] = Survival of human H209 cells at 10 uM under deem light after 96 hrs by MTT assay relative to control; format: functional; conditions: NCI-H209, 96 h, read-out: Survival
HeLa [47] = test: Survival of human HeLa cells at 1 uM under deem light after 96 hrs by MTT assay relative to control; format: functional; conditions: read-out: Survival
SiHa [48] = test: Survival of human SIHA cells at 10 uM under deem light after 96 hrs by MTT assay relative to control; format: functional; conditions: read-out: Survival
NCI-H69 [49] = test: Survival of human H69 cells at 0.1 uM under deem light after 96 hrs by MTT assay relative to control; format: functional; conditions: NCI-H69, 96 h, read-out: Survival
HeLa [50] = test: Survival of human HeLa cells at 100 uM under deem light after 96 hrs by MTT assay relative to control; format: functional; conditions: read-out: Survival

Q: With C=Cc1c(C)c2cc3nc(c4c5[nH]c(cc6nc(cc1[nH]2)C(C)=C6CC)c(C)c5C(=O)[C@@H]4C(=O)OC)[C@@H](CCC(=O)OC)[C@@H]3C [METHYL PHEOPHORBIDE A] as the compound, how does the viability at 0.1 µM (K562 [1]) read?
A: 86%

Q: What about the viability at 10 µM [2] of the same compound?
A: 103%

Q: And the viability at 1 µM [3]?
A: 115%

Q: What about the viability at 0.1 µM [4] of the same compound?
A: 83.6%

Q: And the viability at 1 µM (NCI-H69 [5])?
A: 84.3%

Q: And the viability at 100 µM [6]?
A: 83.2%

Q: And the Activity [7]?
A: Non-toxic

Q: And the IC50 [8]?
A: > 100 µM

Q: What about the viability at 50 µM (K562 [9]) of the same compound?
A: 97.3%

Q: What about the viability at 0.1 µM [10] of the same compound?
A: 100%

Q: And the IC50 (Raji [11])?
A: > 100 µM

Q: What about the HC50 at 10 min [12] of the same compound?
A: > 525 nM

Q: What about the viability at 0.1 µM (HeLa [13]) of the same compound?
A: 89.1%

Q: And the IC50 (K562 [14])?
A: > 100 µM

Q: What about the hemolysis at 10 min, 0.52 µM [15] of the same compound?
A: 18%

Q: What about the viability at 10 µM (HeLa [16]) of the same compound?
A: 72.1%

Q: What about the viability at 10 µM (NCI-H69 [17]) of the same compound?
A: 79%

Q: And the IC50 (Daudi)?
A: 25 µM

Q: What about the viability at 10 µM (K562 [18]) of the same compound?
A: 97.3%

Q: And the viability at 100 µM [19]?
A: 82.3%

Q: What about the viability at 50 µM (NCI-H69 [20]) of the same compound?
A: 76.7%

Q: What about the viability at 1 µM (Raji [21]) of the same compound?
A: 102%

Q: And the viability at 100 µM (NCI-H69 [22])?
A: 63.6%

Q: What about the viability at 1 µM (SiHa [23]) of the same compound?
A: 98%

Q: What about the viability at 50 µM (HeLa [24]) of the same compound?
A: 48.7%

Q: What about the viability at 100 µM (K562 [25]) of the same compound?
A: 106%

Q: What about the viability at 100 µM (Raji [26]) of the same compound?
A: 94.3%

Q: What about the viability at 10 µM (Raji [27]) of the same compound?
A: 107%

Q: What about the HC50 at 5 min [28] of the same compound?
A: > 525 nM

Q: And the viability at 1 µM (K562 [29])?
A: 93.3%

Q: What about the viability at 50 µM [30] of the same compound?
A: 101%

Q: And the viability at 0.1 µM (Raji [31])?
A: 92.9%

Q: And the viability at 50 µM (SiHa [32])?
A: 81%

Q: What about the viability at 1 µM [33] of the same compound?
A: 90.2%

Q: What about the IC50 (SiHa [34]) of the same compound?
A: > 100 µM

Q: What about the viability at 50 µM (Raji [35]) of the same compound?
A: 106%

Q: And the viability at 50 µM [36]?
A: 85.2%

Q: And the IC50 (HeLa [37])?
A: 25 µM

Q: What about the viability at 100 µM [38] of the same compound?
A: 68.9%

Q: What about the viability at 50 µM [39] of the same compound?
A: 90.1%

Q: What about the IC50 (NCI-H69 [40]) of the same compound?
A: > 100 µM

Q: And the viability at 1 µM [41]?
A: 94.9%

Q: And the IC50 [42]?
A: > 100 µM

Q: What about the viability at 100 µM (SiHa [43]) of the same compound?
A: 68%

Q: What about the viability at 10 µM [44] of the same compound?
A: 93.4%

Q: What about the viability at 0.1 µM [45] of the same compound?
A: 128%

Q: What about the viability at 10 µM [46] of the same compound?
A: 91.7%

Q: What about the viability at 1 µM (HeLa [47]) of the same compound?
A: 77.4%

Q: And the viability at 10 µM (SiHa [48])?
A: 90.8%

Q: What about the viability at 0.1 µM (NCI-H69 [49]) of the same compound?
A: 70.7%

Q: What about the viability at 100 µM (HeLa [50]) of the same compound?
A: 36.7%
